Read-outs that look alike come from different tables or passages of the source.
Key:
Type in all cases: in vivo
Aristotle bell pepper = system: Aristotle bell pepper
Protocol: (§1) The following experiments were performed in a green house during the fall of 2007 at GCREC, Balm, University of Florida. Fifteen products, at 3 different application rates were examined. The plot size was 2-gallon pots. Crop set-up, procedures and variables were as follows.
(§2) Transplants of ‘Florida-47’ tomato and ‘Aristotle’ bell pepper plants in the 4-true leaf stage (about 6 inches tall) were planted in 2-gal pots on Aug. 27, 2007. Pots were filled with a commercially available planting medium. This medium was selected based on the mineral composition of the products to be applied without providing significant nutritional inputs to the crops. Irrigation was provided with drip lines delivering between 0.50 and 0.33 gal/day/pot for tomato and bell pepper, respectively, and the crops were irrigated three times per day. No foliar pesticides were necessary.
(§3) There were four control treatments corresponding to each target micronutrient in which non-Fe, non-Mn, non-Zn or non-Cu pots received all other essential nutrients under non-limiting conditions.
(§4) Treatments were applied at three rates (high, medium and low) obtained from the estimated concentration of Zn, Fe, Cu, and Mn foliarly-applied in tomato and bell pepper in field situations (Table 1). Products were weighed and dissolved in 200 ml of deionized water with a non-ionic surfactant and applied to the newly-matured open leaves of each crop at 3 and 7 weeks after transplant (WAT). Treated pots were isolated during application to avoid cross-contamination of other treatments.
(§5) Medium nutrient concentration was determined 1 week before treatment. The mineral composition of the medium was 26.8 ppm NH4—N, 49 ppm NO3—N, 15.8 ppm P, 91.2 ppm K, 82.3 ppm Ca, 58.2 ppm Mg, 23.9 ppm Na, 125.6 ppm S, 1.33 ppm Fe, 0.39 ppm Mn, 0.35 ppm Zn, 0.05 pp, Cu, 0.04 ppm B, 0 ppm Mo, 0.73 ppm Al, and 12.1 ppm Si. The pH of the medium was 5.36 and the electric conductivity was 1.38 mS/cm. The foliar tissue analysis was performed at 6 WAT and the concentration of N, P, K, Mg, Ca, S, B, Zn, Mn, Fe, and Cu was determined by a commercial laboratory. Plant toxicity was determined at 4 WAT by using a 0-10 visual scale, where 0=no visible damage and 10=total plant death. Marketable fruit weight was collected 2 times in bell pepper and 4 times in tomato following USDA standards.
(§6) Data were analyzed using a general linear model, and means were separated using orthogonal contrasts at the 5% significance level.

Florida-47 tomato = system: Florida-47 tomato
Protocol: as §1, §2, §3, §4, §5, §6

Tygress tomato plants [1] = assay: Foliar nutrient concentration at 7 WAT, greenhouse tomato spring 2009 (Examples 13-15)
Protocol: (§7) The following experiments were performed in a green house during the spring of 2009 at GCREC, Balm, University of Florida. Crop set-up, procedures and variables were as follows.
(§8) Transplants of ‘Tygress’ tomato plants were planted in 2-gallon pots filled with commercial planting medium with nutrient concentration of Fe, Zn, Mn, Cu being negligible and insufficient for crop growth. Irrigation and non-micronutrient fertilizer were provided daily through microsprinklers at recommended rates for tomato production in Florida. No pesticides were used. Treatments were as described in Tables 42, 43, and 44 below. BIOX-Cu was compared to Cu-sulfate, BIOX-EDC, and BIOX-O; and BIOX-Fe was compared to Fe-sulfate and BIOX-EDF. BIOX-MEZ is Ca-HMTBA.
(§9) Treatments were applied at 6 WAT (weeks after transplanting) using a water volume of 200 mL/plant. Deionized water was used for foliar applications. A non-ionic surfactant was added. Other nutrients were applied as appropriate under non-limiting conditions.
Foliar tissue nutrient analysis was performed at 3 WAT (i.e., 3 weeks before treatment) and 7 WAT (i.e., 1 weeks after treatment) on the non-applied newest leaves. The concentrations of N, P, K, Mg, Ca, B, Zn, Mn, Fe, and Cu in the foliar tissue were determined by a commercial laboratory. There were no significant differences between the foliar nutrient concentrations of any of the treatment groups prior to treatment.
(§10) Experimental design was a randomized complete block design with 6 replications. Data were analyzed using a general linear model, and means were separated using an LSD test at the 5% significance level.

Tygress tomato plants [2] = settings: for Toxicity (0-10): 0=no injury, 10=plant death
Protocol: as §7, §8, §9
Toxicity of the treatments was assessed by rating foliar tissue using a visual scale, where 0=no injury and 10=plant death.
as §10

Tygress tomato plants [3] = assay: Yields of tomato fruits, greenhouse spring 2009 (Examples 13-15)
Protocol: as §7, §8, §9
Marketable fruit were collected three times during the growing season, starting at 10 WAT (4 weeks after the initial treatment). Tomato fruit was graded as marketable and non-marketable. Marketable fruit was sized as extra-large, large, and medium. Non-marketable fruit were harvested and number and weight recorded but not sized.
as §10

Tygress tomato plants [4] = assay: Foliar nutrient concentration at 6 WAT, open-field tomato (Examples 7-10); settings: in vivo
Protocol: The following experiments were performed in open-field plots during the spring of 2008 at GCREC, Balm, University of Florida. Four products delivering Zn (BIOX-Z), Mn (BIOX-M), Cu (BIOX-Cu), and Fe (BIOX-Fe) were compared to other micronutrient supplement formulations in tomato and bell pepper plants.
The plot sizes for the tomato plants were 30-ft plots (15 plants per plot) and 15-ft plots were used for the bell pepper plants (30 plants per plot). Crop set-up, procedures and variables were as follows.
Transplants of ‘Tygress’ tomato plants and ‘Patriot’ bell pepper plants in the 4-true leaf stage (about 6 inches tall) were planted in raised beds in open-field plots. The cross-section of each raised bed was 28 inches wide at the top, 32 inches wide at the base, and 8 inches tall. Irrigation and non-micronutrient fertilizer were provided daily through two drip lines per bed (0.45 gal/100 ft bed/min) at recommended rates for tomato and bell pepper production in Florida. […] The height of the plants for each of the treatment groups was measured at 3 weeks after transplantation (WAT), just prior to treatment with the experimental foliar fertilizers.
All foliar fertilizers except BIOX-CM were applied to the various treatment groups at 3 weeks after transplantation (WAT) and again at 5 WAT. The BIOX-CM treatment was applied at 4 and 5 WAT. The working water volume was 60 gal/acre and a non-ionic surfactant (Ad-Spray 80) was added in the amount of 2 pints/100 gal water. All plots were sprayed with sprayers pressurized at 25 psi and the canopies of both crops were covered with the micronutrient solutions. Treated plots were isolated during foliar fertilizer application to avoid the cross-contamination of other treatments on adjoining plots.
Leaf samples were collected from the most recent mature leaves from each plant at 6 WAT (2 weeks after initial treatment). Foliar tissue analysis was performed by a commercial laboratory to determine the concentration of N, P, K, Mg, Ca, B, Zn, Mn, Fe, and Cu. Tomato marketable fruit weights were collected at 10 and 12 WAT, and the fruits were graded according to USDA standards. Pepper marketable fruit weights were determined beginning at 5 WAT over 5 weekly harvests. Fruit mineral analysis (N, P, K, Mg, Ca, B, Zn, Mn, Fe, and Cu) was performed on samples from the tomato harvest.
The experimental design was a randomized complete block design with 5 replications for each treatment. All comparison data were analyzed using a general linear model and the means of each treatment were separated with a Fisher's protected LSD test at the 5% significance level.

[5] = High rate, 1 week after treatment, scale 0 = no visible injury, 10 = plant death
[6] = Low rate, 1 week after treatment, scale 0 = no visible injury, 10 = plant death
[7] = Medium rate, 1 week after treatment, scale 0 = no visible injury, 10 = plant death
[8] = tomato and bell pepper plants stated together, Fall 2007 greenhouse
[9] = BIOX-Cu at 0.46 and 0.55 lb/acre, Cu-sulfate at 0.8 lb/acre, BIOX-EDC at 0.4 lb/acre

Molecule: manganese glycinate [BIOX-GM]
- Pepper toxicity (Aristotle bell pepper; [5]): 7
- Pepper toxicity (Aristotle bell pepper; [6]): 7
- Pepper toxicity (Aristotle bell pepper; [7]): 7
- Tomato toxicity (Florida-47 tomato; [5]): 7
- Tomato toxicity (Florida-47 tomato; [6]): 7
- Tomato toxicity (Florida-47 tomato; [7]): 7
- Toxicity scale score (Florida-47 tomato; similar manganese concentrations (0.015% to 0.124% by weight), scale 0-10, both crops): 7
- Foliar injury (in words) (Florida-47 tomato; [8]): from light leaf speckling to severe necrosis and plant decay

Molecule: O=S(=O)([O-])[O-].[Cu+2] [Cu sulfate]
- Foliar Cu concentration (Tygress tomato plants [1]; Cu 0.8 lb/acre, tomato leaves 1 week after treatment): 986 ppm
- Toxicity (0-10) (Tygress tomato plants [2]; Cu 0.8 lb/acre): 6
- Marketable yield (Tygress tomato plants [3]; Cu 0.8 lb/acre): 1200 b g/plant

Molecule: EDTA chelated iron [BIOX-EDI]
- Pepper toxicity (Aristotle bell pepper; [5]): 9
- Pepper toxicity (Aristotle bell pepper; [6]): 9
- Pepper toxicity (Aristotle bell pepper; [7]): 9
- Tomato toxicity (Florida-47 tomato; [5]): 8
- Tomato toxicity (Florida-47 tomato; [6]): 8
- Tomato toxicity (Florida-47 tomato; [7]): 8
- Foliar injury (in words) (Florida-47 tomato; [8]): from light leaf speckling to severe necrosis and plant decay

Molecule: O=S(=O)([O-])[O-].[Fe+2] [Fe sulfate]
- Foliar Fe concentration (Tygress tomato plants [1]; Fe 2.0 lb/acre, tomato leaves 1 week after treatment): 888 ppm
- Toxicity (0-10) (Tygress tomato plants [2]; Fe 2.0 lb/acre): 5
- Marketable yield (Tygress tomato plants [3]; Fe 2.0 lb/acre): 1100 g/plant

Molecule: NCC(=O)[O-].NCC(=O)[O-].[Cu+2] [BIOX-GC, copper glycinate]
- Foliar Zn concentration of tomato plants, statement (Tygress tomato plants [4]): slightly higher foliar Zn concentration
- Pepper toxicity (Aristotle bell pepper; in vivo): 7
- Foliar injury (in words) (Florida-47 tomato; in vivo): from light leaf speckling to severe necrosis and plant decay
- Tomato toxicity (Florida-47 tomato; in vivo): 7
- Toxicity scale score (Florida-47 tomato; in vivo): 7

Molecule: EDTA chelated copper [BIOX-EDC]
- Copper concentrations in tomato leaves, statement (Tygress tomato plants [1]; 7 WAT (1 week after treatment)): highest leaf copper concentrations
- Foliar Cu concentration (Tygress tomato plants [1]; Cu 0.4 lb/acre, tomato leaves 1 week after treatment): 678 ppm
- Toxicity compared to non-treated control plants, statement (Tygress tomato plants [2]; [9]): increased levels of toxicity
- Toxicity (0-10) (Tygress tomato plants [2]; Cu 0.4 lb/acre): 6
- Marketable tomato yields compared to non-treated control, statement (Tygress tomato plants [3]; [9]): did not alter marketable yields relative to the non-treated control
- Marketable yield (Tygress tomato plants [3]; Cu 0.4 lb/acre): 1550 b g/plant
- Pepper toxicity (Aristotle bell pepper; [5]): 8
- Pepper toxicity (Aristotle bell pepper; [6]): 8
- Pepper toxicity (Aristotle bell pepper; [7]): 8
- Tomato toxicity (Florida-47 tomato; [5]): 8
- Tomato toxicity (Florida-47 tomato; [6]): 8
- Tomato toxicity (Florida-47 tomato; [7]): 8
- Toxicity scale score (Florida-47 tomato; comparable ranges of copper concentrations (0.004% to 0.061% by weight), scale 0-10, both crops): 8
- Foliar injury (in words) (Florida-47 tomato; [8]): from light leaf speckling to severe necrosis and plant decay

Molecule: O=S(=O)([O-])[O-].[Fe+2] [BIOX-INI, ferrous sulfate]
- Foliar Fe concentration in tomato leaves, statement (Tygress tomato plants [1]; 7 WAT (1 week after treatment)): highest Fe concentrations
- Toxicity relative to the non-treated control, statement (Tygress tomato plants [2]; all levels of BIOX-Fe, Fe-sulfate at 2.0 lb/acre, BIOX-EDF at 0.3 lb/acre): increased toxicity
- Marketable tomato yields compared to non-treated control, statement (Tygress tomato plants [3]; BIOX-Fe at all levels, Fe-sulfate at 2.0 lb/acre, BIOX-EDF at 0.3 lb/acre): decreased marketable yields relative to the non-treated control
- Pepper toxicity (Aristotle bell pepper; in vivo): 7
- Foliar injury (in words) (Florida-47 tomato; in vivo): from light leaf speckling to severe necrosis and plant decay
- Tomato toxicity (Florida-47 tomato; in vivo): 7
- Toxicity scale scores (Florida-47 tomato; in vivo): 7-9

Reference: US20110098177A1, “METHODS AND COMPOSITIONS OF PLANT MICRONUTRIENTS” (NOVUS INTERNATIONAL INC., priority 2006, published 2011)
